Experimental data: ChEMBL document CHEMBL3885881, “DrugMatrix”

Organism: Rattus norvegicus
Assay: DrugMatrix - Regimen: Daily Repeat
Format: toxicity, organism-based, Sprague-Dawley
Parameters: regimen Daily Repeat, gender Male, age 6-8 weeks
Details: in vivo, po, route oral GAVAGE, […]; for ABSOLUTE BASOPHIL / ABSOLUTE EOSINOPHIL / ABSOLUTE LYMPHOCYTE / ABSOLUTE MONOCYTE / ABSOLUTE SEGMENTED NEUTROPHIL / BASOPHIL / EOSINOPHIL / ERYTHROCYTE COUNT / HEMATOCRIT / HEMOGLOBIN / LEUKOCYTE COUNT / LYMPHOCYTE / MEAN CORPUSCULAR HEMOGLOBIN / MEAN CORPUSCULAR HEMOGLOBIN CONCENTRATION / MEAN CORPUSCULAR VOLUME / MONOCYTE / NEUTROPHIL / NUCLEATED RED BLOOD CELLS / PLATELET COUNT: tissue Blood; for ALANINE AMINOTRANSFERASE / ALBUMIN / ALKALINE PHOSPHATASE / ASPARTATE AMINOTRANSFERASE / BLOOD UREA NITROGEN / CARBON DIOXIDE / CHLORIDE / CHOLESTEROL / CREATINE PHOSPHOKINASE / CREATININE / GLUCOSE / LACTATE DEHYDROGENASE / LIPASE / PHOSPHORUS / POTASSIUM / SODIUM / TOTAL BILIRUBIN / TOTAL PROTEIN / URIC ACID: tissue Plasma
[1] = 100 mg/kg, 120 h, dose level Low, time 5 day
[2] = 700 mg/kg, 72 h, dose level High, time 3 day
[3] = 700 mg/kg, 120 h, dose level High, time 5 day

CC(=O)Nc1cccc(O)c1 [METACETAMOL]
ABSOLUTE BASOPHIL [1]: 0 CELLS/uL | ABSOLUTE EOSINOPHIL [1]: 0 CELLS/uL | ABSOLUTE LYMPHOCYTE [1]: 14298.33 CELLS/uL | ABSOLUTE MONOCYTE [1]: 106.33 CELLS/uL | ABSOLUTE SEGMENTED NEUTROPHIL [1]: 1828.67 CELLS/uL | BASOPHIL [1]: 0% | EOSINOPHIL [1]: 0% | ERYTHROCYTE COUNT [1]: 5.63 x10E6/uL | HEMATOCRIT [1]: 35% | HEMOGLOBIN [1]: 13.73 G/DL | LEUKOCYTE COUNT [1]: 16.23 x10E3/uL | LYMPHOCYTE [1]: 88% | MEAN CORPUSCULAR HEMOGLOBIN [1]: 24.43 pg | MEAN CORPUSCULAR HEMOGLOBIN CONCENTRATION [1]: 39.23 G/DL | MEAN CORPUSCULAR VOLUME [1]: 62.23 fL | MONOCYTE [1]: 0.67% | NEUTROPHIL [1]: 11.33% | NUCLEATED RED BLOOD CELLS [1]: 0.33 /100WBC | PLATELET COUNT [1]: 1235.67 x10E3/uL | ALANINE AMINOTRANSFERASE [1]: 58.33 u/L | ALBUMIN [1]: 4.03 G/DL | ALKALINE PHOSPHATASE [1]: 434.67 u/L | ASPARTATE AMINOTRANSFERASE [1]: 95 u/L | BLOOD UREA NITROGEN [1]: 14.67 mg/dL | CARBON DIOXIDE [1]: 26.67 mmol/L | CHLORIDE [1]: 101 MEQ/L | CHOLESTEROL [1]: 68.33 mg/dL | CREATINE PHOSPHOKINASE [1]: 455.33 u/L | CREATININE [1]: 0.2 mg/dL | GLUCOSE [1]: 151 mg/dL | LACTATE DEHYDROGENASE [1]: 549 u/L | LIPASE [1]: 10.33 u/L | PHOSPHORUS [1]: 11.03 mg/dL | POTASSIUM [1]: 6.46 MEQ/L | SODIUM [1]: 140.67 MEQ/L | TOTAL BILIRUBIN [1]: 0.17 mg/dL | TOTAL PROTEIN [1]: 5.73 G/DL | URIC ACID [1]: 1.6 mg/dL | ABSOLUTE BASOPHIL [2]: 0 CELLS/uL | ABSOLUTE EOSINOPHIL [2]: 0 CELLS/uL | ABSOLUTE LYMPHOCYTE [2]: 14734.67 CELLS/uL | ABSOLUTE MONOCYTE [2]: 227.67 CELLS/uL | ABSOLUTE SEGMENTED NEUTROPHIL [2]: 1637.67 CELLS/uL | BASOPHIL [2]: 0% | EOSINOPHIL [2]: 0% | ERYTHROCYTE COUNT [2]: 5.31 x10E6/uL | HEMATOCRIT [2]: 34.37% | HEMOGLOBIN [2]: 13.6 G/DL | LEUKOCYTE COUNT [2]: 16.6 x10E3/uL | LYMPHOCYTE [2]: 89% | MEAN CORPUSCULAR HEMOGLOBIN [2]: 25.6 pg | MEAN CORPUSCULAR HEMOGLOBIN CONCENTRATION [2]: 39.6 G/DL | MEAN CORPUSCULAR VOLUME [2]: 64.7 fL | MONOCYTE [2]: 1.33% | NEUTROPHIL [2]: 9.67% | NUCLEATED RED BLOOD CELLS [2]: 0 /100WBC | PLATELET COUNT [2]: 1189.67 x10E3/uL | ALANINE AMINOTRANSFERASE [2]: 61.67 u/L | ALBUMIN [2]: 4.37 G/DL | ALKALINE PHOSPHATASE [2]: 420.33 u/L | ASPARTATE AMINOTRANSFERASE [2]: 80.33 u/L | BLOOD UREA NITROGEN [2]: 15.67 mg/dL | CARBON DIOXIDE [2]: 32.33 mmol/L | CHLORIDE [2]: 98.67 MEQ/L | CHOLESTEROL [2]: 94 mg/dL | CREATINE PHOSPHOKINASE [2]: 171 u/L | CREATININE [2]: 0.17 mg/dL | GLUCOSE [2]: 144 mg/dL | LACTATE DEHYDROGENASE [2]: 137 u/L | LIPASE [2]: 10 u/L | PHOSPHORUS [2]: 10.6 mg/dL | POTASSIUM [2]: 6.44 MEQ/L | SODIUM [2]: 143.63 MEQ/L | TOTAL BILIRUBIN [2]: 0.27 mg/dL | TOTAL PROTEIN [2]: 6 G/DL | URIC ACID [2]: 1.33 mg/dL | ABSOLUTE BASOPHIL [3]: 0 CELLS/uL | ABSOLUTE EOSINOPHIL [3]: 0 CELLS/uL | ABSOLUTE LYMPHOCYTE [3]: 13480 CELLS/uL | ABSOLUTE MONOCYTE [3]: 247.33 CELLS/uL | ABSOLUTE SEGMENTED NEUTROPHIL [3]: 2206 CELLS/uL | BASOPHIL [3]: 0% | EOSINOPHIL [3]: 0% | ERYTHROCYTE COUNT [3]: 5.72 x10E6/uL | HEMATOCRIT [3]: 35.17% | HEMOGLOBIN [3]: 13.93 G/DL | LEUKOCYTE COUNT [3]: 15.93 x10E3/uL | LYMPHOCYTE [3]: 84.67% | MEAN CORPUSCULAR HEMOGLOBIN [3]: 24.37 pg | MEAN CORPUSCULAR HEMOGLOBIN CONCENTRATION [3]: 39.6 G/DL | MEAN CORPUSCULAR VOLUME [3]: 61.53 fL | MONOCYTE [3]: 1.67% | NEUTROPHIL [3]: 13.67% | NUCLEATED RED BLOOD CELLS [3]: 0.67 /100WBC | PLATELET COUNT [3]: 1165.67 x10E3/uL | ALANINE AMINOTRANSFERASE [3]: 57 u/L | ALBUMIN [3]: 4.27 G/DL | ALKALINE PHOSPHATASE [3]: 454.33 u/L | ASPARTATE AMINOTRANSFERASE [3]: 78.67 u/L | BLOOD UREA NITROGEN [3]: 15.67 mg/dL | CARBON DIOXIDE [3]: 27.33 mmol/L | CHLORIDE [3]: 105 MEQ/L | CHOLESTEROL [3]: 78.67 mg/dL | CREATINE PHOSPHOKINASE [3]: 239.33 u/L | CREATININE [3]: 0.25 mg/dL | GLUCOSE [3]: 169.67 mg/dL | LACTATE DEHYDROGENASE [3]: 132 u/L | LIPASE [3]: 10.33 u/L | PHOSPHORUS [3]: 10.87 mg/dL | POTASSIUM [3]: 7.12 MEQ/L | SODIUM [3]: 151.07 MEQ/L | TOTAL BILIRUBIN [3]: 0.2 mg/dL | TOTAL PROTEIN [3]: 5.97 G/DL | URIC ACID [3]: 2 mg/dL
